Results on four compounds are retold here after ChEMBL document CHEMBL1156648, “Tetrahdroxysqualene from Rhus taitensis shows antimycobacterial activity against Mycobacterium tuberculosis” (J Nat Prod, 2008).

Experiment [1] is described as follows: Cytotoxicity against human CEM-TART cells after 72 hrs by MTT assay. The format is cell-based. On the technique in general: Formazan colour is commonly taken as a measure of viable cells.
For experiment [2], the system named is Mycobacterium tuberculosis. The experiment in a line: Antimycobacterial activity against Mycobacterium tuberculosis H37Ra after 4 days by MTT assay. The format is functional. The conditions noted are these: 96 h.
Experiment [3] deals with Mycobacterium tuberculosis. Kind of experiment: Antimycobacterial activity against Mycobacterium tuberculosis H37Rv by MTT assay after 4 days by MTT assay. The format is functional. The conditions noted are these: 96 h.
Experiment [4] concerns Mycobacterium tuberculosis. The experiment in a line: Antimycobacterial activity against Mycobacterium tuberculosis H37Rv at 100 ug/ml after 4 days by MTT assay. The settings on record: 96 h, read-out: GI. Format: functional.
Experiment [5] has as its system Mycobacterium tuberculosis. The experiment in a line: Antimycobacterial activity against Mycobacterium tuberculosis H37Ra at 200 ug/ml after 4 days by MTT assay. Format: functional, organism-based.

Structures are written as SMILES. ≈ marks a conversion by molar mass, not a printed value. Calls of active or inactive are those of the source. The calls are words filed in the database; no cut-off is given here.

With `COc1cccc2c1C(=O)c1c(O)c3c(c(O)c1C2=O)C[C@@](O)(C(=O)CO)C[C@@H]3O[C@H]1C[C@H](N)[C@H](O)[C@H](C)O1` [DOXORUBICIN], in experiment [1], it took 0.0044 µg/mL (≈ 0.0081 µM) to reach a half-maximal effect (EC50).
As to `CO[C@H]1/C=C/O[C@@]2(C)Oc3c(C)c(O)c4c(O)c(c(/C=N/N5CCN(C)CC5)c(O)c4c3C2=O)NC(=O)/C(C)=C\C=C\[C@H](C)[C@H](O)[C@@H](C)[C@@H](O)[C@@H](C)[C@H](OC(C)=O)[C@@H]1C` [RIFAMPIN], the MIC in experiment [2] and in experiment [3] was 0.0025 µg/mL (≈ 0.00304 µM) each time.
As for `CC(C)=CCC/C(C)=C/CC/C(C)=C/CC/C=C(\C)CC/C=C(\C)CCC=C(C)C` [SQUALENE], 100 µg/mL (≈ 243 µM) was the least that counted as inhibitory in experiment [3] (MIC). Also, the inhibition of growth at 100 µg/mL in experiment [4] came to 99%. In addition, the outcome in experiment [5] was inactive.
As for `C/C(=C\CC/C(C)=C/CC/C=C(\C)CC/C=C(\C)CCC=C(CO)CO)CCC=C(CO)CO` [TETRAHYDROXYSQUALENE], the MIC (as a rule, the least concentration at which growth counts as inhibited) in experiment [2] was determined as 10 µg/mL (≈ 21.1 µM). In addition, a half-maximal effect in experiment [1] (EC50) was put at 27.5 µg/mL (≈ 57.9 µM).
